Assay results from patent US10538535B2, “Antitumoral compounds” (priority 2017, dated 2020).
Read-outs that look alike come from different tables or passages of the source.

Experiments:
[1] = tested on: HGC27 tumors; conditions: iv, 0.5 mg/kg
[2] = tested on: H526 tumors; experiment: In vivo xenograft, human lung (SCLC) H526
Procedure: Female athymic nu/nu mice (Harlan Laboratories Models, S. L. Barcelona, Spain or Envigo, Spain) were utilized for all experiments. Animal were housed in individually ventilated cages Sealsafe® Plus, Techniplast S.P.A.), up to ten per cage on a 12-hour light-dark cycle at 21-23° C. and 40-60% humidity. Mice were allowed free access to irradiated standard rodent diet (Tecklad 2914C) and sterilized water. Animals were acclimated for at least 5 days prior to tumor implantation with a tumor cell suspension.
H526 cells were grown as a suspension and maintained by addition of fresh medium, as the cell density increases, every 2 to 3 days. Every week, culture was reestablished by centrifugation of the suspension with subsequent resuspension in fresh medium at a concentration of 1×10^5 cell/mL. Each animal was subcutaneously implanted (on the right flank using 26 G needle and a 1 cc syringe) at 4-6 weeks of age with 5×10^6 H526 cells suspended in 0.05 mL of a solution consisting of 50% Matrigel® (Corning Incorporated Life Sciences) and 50% medium without serum or antibiotics.
Treatment tolerability was assessed by monitoring body weight evolution, clinical signs of systemic toxicity, as well as evidences of local damage in the injection site.
Treatments producing >20% lethality and/or 20% net body weight loss were considered toxic.

Structure (SMILES): COc1c(C)cc2c(c1O)[C@@H]1[C@@H]3[C@@H]4SC[C@]5(N[C@@H](C)Cc6c5[nH]c5ccccc65)C(=O)OC[C@@H](c5c6c(c(C)c(OC(C)=O)c54)OCO6)N3[C@@H](O)[C@H](C2)N1C [D]
- Median Tumor Volume ([1]; 336 h): 1056.8 mm^3
- Median Tumor Volume ([1]; 384 h): 1440.2 mm^3
- Median Tumor Volume ([1]; 456 h): 1717.9 mm^3
- Median Tumor Volume ([1]; 504 h): 2043.4 mm^3
- Median Tumor Volume ([2]; Table 32, Day 0.0, iv Days 0, 7, 14, 12-R 0.05 mg/kg, Compound D 0.5 mg/kg): 216.1 mm^3
- Median Tumor Volume ([2]; Table 32, Day 2.0, iv Days 0, 7, 14, 12-R 0.05 mg/kg, Compound D 0.5 mg/kg): 240.9 mm^3
- Median Tumor Volume ([2]; Table 32, Day 4.0, iv Days 0, 7, 14, 12-R 0.05 mg/kg, Compound D 0.5 mg/kg): 99.3 mm^3
- Median Tumor Volume ([2]; Table 32, Day 7.0, iv Days 0, 7, 14, 12-R 0.05 mg/kg, Compound D 0.5 mg/kg): 56.7 mm^3
- Median Tumor Volume ([2]; Table 32, Day 9.0, iv Days 0, 7, 14, 12-R 0.05 mg/kg, Compound D 0.5 mg/kg): 62.5 mm^3
- Median Tumor Volume ([2]; Table 32, Day 11.0, iv Days 0, 7, 14, 12-R 0.05 mg/kg, Compound D 0.5 mg/kg): 62.5 mm^3
- Median Tumor Volume ([2]; Table 32, Day 14.0, iv Days 0, 7, 14, 12-R 0.05 mg/kg, Compound D 0.5 mg/kg): 32.0 mm^3
- Median Tumor Volume ([2]; Table 32, Day 16.0, iv Days 0, 7, 14, 12-R 0.05 mg/kg, Compound D 0.5 mg/kg): 4.0 mm^3
- Median Tumor Volume ([2]; Table 32, Day 21.0, iv Days 0, 7, 14, 12-R 0.05 mg/kg, Compound D 0.5 mg/kg): 4.0 mm^3
- Median Tumor Volume ([2]; Table 32, Day 28.0, iv Days 0, 7, 14, 12-R 0.05 mg/kg, Compound D 0.5 mg/kg): 4.0 mm^3
- Median Tumor Volume ([2]; Table 32, Day 35.0, iv Days 0, 7, 14, 12-R 0.05 mg/kg, Compound D 0.5 mg/kg): 4.0 mm^3
- Median Tumor Volume ([2]; Table 32, Day 42.0, iv Days 0, 7, 14, 12-R 0.05 mg/kg, Compound D 0.5 mg/kg): 4.0 mm^3
- Median Tumor Volume ([2]; Table 32, Day 49.0, iv Days 0, 7, 14, 12-R 0.05 mg/kg, Compound D 0.5 mg/kg): 4.0 mm^3
- Median Tumor Volume ([2]; Table 56, Day 0, iv weekly, 47-R 0.1 mg/Kg, Compound D 0.5 mg/Kg): 216.1 mm^3
- Median Tumor Volume ([2]; Table 56, Day 2, iv weekly, 47-R 0.1 mg/Kg, Compound D 0.5 mg/Kg): 240.9 mm^3
- Median Tumor Volume ([2]; Table 56, Day 4, iv weekly, 47-R 0.1 mg/Kg, Compound D 0.5 mg/Kg): 99.3 mm^3
- Median Tumor Volume ([2]; Table 56, Day 7, iv weekly, 47-R 0.1 mg/Kg, Compound D 0.5 mg/Kg): 56.7 mm^3
- Median Tumor Volume ([2]; Table 56, Day 9, iv weekly, 47-R 0.1 mg/Kg, Compound D 0.5 mg/Kg): 62.5 mm^3
- Median Tumor Volume ([2]; Table 56, Day 11, iv weekly, 47-R 0.1 mg/Kg, Compound D 0.5 mg/Kg): 62.5 mm^3
- Median Tumor Volume ([2]; Table 56, Day 14, iv weekly, 47-R 0.1 mg/Kg, Compound D 0.5 mg/Kg): 32.0 mm^3
- Median Tumor Volume ([2]; Table 56, Day 16, iv weekly, 47-R 0.1 mg/Kg, Compound D 0.5 mg/Kg): 4.0 mm^3
- Median Tumor Volume ([2]; Table 56, Day 21, iv weekly, 47-R 0.1 mg/Kg, Compound D 0.5 mg/Kg): 4.0 mm^3
- Median Tumor Volume ([2]; Table 56, Day 28, iv weekly, 47-R 0.1 mg/Kg, Compound D 0.5 mg/Kg): 4.0 mm^3
- Median Tumor Volume ([2]; Table 56, Day 35, iv weekly, 47-R 0.1 mg/Kg, Compound D 0.5 mg/Kg): 4.0 mm^3
- Median Tumor Volume ([2]; Table 56, Day 42, iv weekly, 47-R 0.1 mg/Kg, Compound D 0.5 mg/Kg): 4.0 mm^3
- Median Tumor Volume ([2]; Table 56, Day 49, iv weekly, 47-R 0.1 mg/Kg, Compound D 0.5 mg/Kg): 4.0 mm^3
- Median Tumor Volume ([2]; Table 56, Day 56, iv weekly, 47-R 0.1 mg/Kg, Compound D 0.5 mg/Kg): 4.0 mm^3
- Median Tumor Volume ([2]; Table 56, Day 63, iv weekly, 47-R 0.1 mg/Kg, Compound D 0.5 mg/Kg): 4.0 mm^3
- Median Tumor Volume ([2]; Table 56, Day 70, iv weekly, 47-R 0.1 mg/Kg, Compound D 0.5 mg/Kg): 4.0 mm^3
- Median Tumor Volume ([2]; Table 56, Day 77, iv weekly, 47-R 0.1 mg/Kg, Compound D 0.5 mg/Kg): 4.0 mm^3
- Median Tumor Volume ([2]; Table 56, Day 84, iv weekly, 47-R 0.1 mg/Kg, Compound D 0.5 mg/Kg): 4.0 mm^3
- Median Tumor Volume ([2]; Table 56, Day 91, iv weekly, 47-R 0.1 mg/Kg, Compound D 0.5 mg/Kg): 4.0 mm^3
- Median Tumor Volume ([2]; Table 56, Day 98, iv weekly, 47-R 0.1 mg/Kg, Compound D 0.5 mg/Kg): 4.0 mm^3
- Median Tumor Volume ([2]; Table 56, Day 105, iv weekly, 47-R 0.1 mg/Kg, Compound D 0.5 mg/Kg): 4.0 mm^3
- Median Tumor Volume ([2]; Table 56, Day 112, iv weekly, 47-R 0.1 mg/Kg, Compound D 0.5 mg/Kg): 4.0 mm^3
- Median Tumor Volume ([2]; Table 56, Day 119, iv weekly, 47-R 0.1 mg/Kg, Compound D 0.5 mg/Kg): 4.0 mm^3
- Median Tumor Volume ([2]; Table 56, Day 126, iv weekly, 47-R 0.1 mg/Kg, Compound D 0.5 mg/Kg): 4.0 mm^3
- Median Tumor Volume ([2]; Table 56, Day 133, iv weekly, 47-R 0.1 mg/Kg, Compound D 0.5 mg/Kg): 4.0 mm^3
- Median Tumor Volume ([2]; Table 56, Day 140, iv weekly, 47-R 0.1 mg/Kg, Compound D 0.5 mg/Kg): 4.0 mm^3
- Median Tumor Volume ([2]; Table 56, Day 147, iv weekly, 47-R 0.1 mg/Kg, Compound D 0.5 mg/Kg): 4.0 mm^3
- Median Tumor Volume ([2]; Table 56, Day 165, iv weekly, 47-R 0.1 mg/Kg, Compound D 0.5 mg/Kg): 4.0 mm^3
- Median Tumor Volume ([2]; Table 56, Day 175, iv weekly, 47-R 0.1 mg/Kg, Compound D 0.5 mg/Kg): 4.0 mm^3
- Median Tumor Volume ([2]; Table 56, Day 191, iv weekly, 47-R 0.1 mg/Kg, Compound D 0.5 mg/Kg): 4.0 mm^3
- Median Tumor Volume ([2]; Table 56, Day 205, iv weekly, 47-R 0.1 mg/Kg, Compound D 0.5 mg/Kg): 4.0 mm^3
